The conditions of data set [1]: TAMRAD study; cited from earlier work.
Data set [2] deals with breast tumours with low or high LKB1 expression. Nature of the data set: TAMRAD translational study: time to progression by LKB1 H score (IHC) in primary tumour. It is filed as in vivo, human.
Protocol: Paraffin embedded breast tumors were serially sectioned at a thickness of 4 μm. After deparaffinization and rehydration, tissue sections were boiled in low pH buffer (Dako) using a PT Link at 97° C. for 30 minutes. For blocking endogenous peroxidases, the slides were incubated in 5% hydrogen peroxide in sterile water. The slides were then incubated at room temperature for one hour with the anti-LKB1 polyclonal rabbit antibody (Ref: Ab58786, Abcam, Cambridge, UK) diluted at 1/50. After rinsing in Phosphate Buffer Saline, the slides were incubated with a biotinylated secondary antibody bound to a streptavidin peroxidase conjugate (Envision Flex kit Ref: K800021-2, Dako, Trappes, France). […] Sections were counterstained with hematoxylin.
All slides were read by a single senior pathologist who was blinded to the clinical data. For comparison of the staining among tissues, samples were scored semi-quantitatively using a complete histological score (H score) that considered both the staining intensity and the percentage of cells stained at a specific range of intensities. For each case, the complete H score was defined as the products of the percentage of cells stained at a given staining intensity (0-100) and the staining intensity score (0, none; 1, weak, 2, moderate, and 3, intense). […]
Data set [3] deals with hormone receptor-positive and human epidermal growth factor receptor type 2 (HER2)-negative mBC. To be noted: cited from earlier work.
Data set [4] concerns metastatic breast cancer ER+/HER2− progressed after aromatase inhibitor. As to conditions: 724 patients randomized 2:1; cited from earlier work.

Like-named read-outs stand apart in the source and are kept apart here.

Turning to `CO[C@H]1C[C@@H]2CC[C@@H](C)[C@@](O)(O2)C(=O)C(=O)N2CCCC[C@H]2C(=O)O[C@H]([C@H](C)C[C@@H]2CC[C@@H](OCCO)[C@H](OC)C2)CC(=O)[C@H](C)/C=C(\C)[C@@H](O)[C@@H](OC)C(=O)[C@H](C)C[C@H](C)/C=C/C=C/C=C/1C` [everolimus, 42-O-(2-hydroxyethyl)rapamycin], in data set [1], the “patients who had to decrease the dose of everolimus” value is reported as 20% and the “patients who had to stop everolimus due to toxicities” value is 20%.

Turning to `CC/C(=C(\c1ccccc1)c1ccc(OCCN(C)C)cc1)c1ccccc1` [tamoxifen], the time to progression in data set [2] (patients with H Score above 90, p=0.35) came out at 5.5 months; in data set [2] (patients with LKB1 H Score below or at 90, P=0.03) it was 4.5 months. Moreover, in data set [3] (ITT population, exploratory P=0.002), the “median TTP” value is listed as 4.5 months. In addition, the “clinical benefit rate (CBR) at 6 months” value in data set [3] (ITT population, exploratory P=0.045) was 42%; in data set [3] (per-protocol population), 41%. For the same compound, the “time-to-progression (TTP)” value in data set [3] (TAMRAD trial, 111 patients) is on record as 4.5 months. In addition, the “median OS” value in data set [3] (last update of OS in September 2011) is listed as 32.9 months.

With exemestane [exemestane and placebo], in data set [4], the “progression free survival (PFS), local investigator assessment” value was 2.8 months.

The values above are taken from patent US20150250770A1, “LKB1 AS PREDICTIVE MARKER OF EVEROLIMUS EFFICACY IN BREAST CANCER” (CENTRE LEON BERARD, priority 2012, published 2015).
